Blank lines part the entries; values can stand above or below the compound they belong to.
Assays:
[1] = Plasma stability in human plasma (first experiment); type: in vitro ADME
Description: (§1) A 10 μl of MeOH was added to improve solubility. […] The supernatant fractions were analyzed by LC/MS/MS. […] Percent loss of substrate in incubations was determined to estimate the in vitro half life of the test compound. Samples were analyzed on a UPLC (Waters) interfaced with a Premiere XE Triple Quadrupole (Waters).

[2] = Plasma stability in minipig plasma (first experiment); type: in vitro ADME
Description: as §1

[3] = HPLC retest of stored compound A samples; type: physicochemical; conditions: for HPLC purity: room temperature, natural light
human whole blood = experiment: Cytokine secretion in human whole blood assay (ELISA); type: cell-based; conditions: for IL-12p40 levels: all donors
Description: Before drawing the blood, the compounds were added to 96 well round bottom plates in a 10× diluted sample at 20 ul. The compounds were diluted in RPMI media without serum but with antibiotics. Antibiotics were added at a 10× concentration. After drawing the blood, the whole blood sample was gently mixed to obtain a homogeneous sample, and 180 ul was added to each well.
All compounds were setup in concentrations at 0-0.01-0.03-0.1-0.5-2.0-10.0 micromolar as the final concentration. Vehicle control was DMSO control, where we used the highest concentration used for the compounds. After addition of blood, all plates were gently agitated at 37° C. and 5% CO2 until harvest.
Concentrations of cytokines were determined by ELISA from R&D Systems. The results were analyzed in Graph Pad Prism in order to prepare dose-response curves, and for determination of EC50 values. FACS analysis was made by using Becton-Dickinson FACSDiva software and subsequently illustrated in Graph Pad Prism.

[4] = Plasma stability in rabbit plasma (first experiment); type: in vitro ADME
Description: as §1

[5] = Stability study of compound A under storage conditions (HPLC); type: physicochemical
[6] = system: recombinant protein antigens from Plasmodium falciparum and Mycobacterium ulcerans; experiment: Pilot immunization study with adjuvanted protein antigens in mice; type: in vivo; conditions: three s.c. immunizations with 10 nMol adjuvant
Description: A pilot immunization study was conducted using Compound A and SC12 adjuvanted protein antigens. The immunization experiments were performed with two recombinant proteins expressed in E. coli. One antigen was derived from the malaria parasite Plasmodium falciparum and the other one from Mycobacterium ulcerans, which cause the ulcerative skin disease Buruli ulcer.

[7] = Plasma stability in rat plasma (first experiment); type: in vitro ADME
Description: as §1

[8] = Solubility in organic solvents; type: physicochemical; conditions: methanol, ethanol, dichloromethane, ethyl acetate, acetonitrile, acetone, chloroform
[9] = published data, Clarke et al. 2009; cited from earlier work
[10] = system: HLA-DR+/CD11c+/CD123- mDCs; experiment: FACS analysis of myeloid DC activation in whole blood; type: cell-based, human; conditions: 24 hours; 0.1 and 0.5 uM; three donors
Description: The FACS analysis for donor 1 and donor 2 was made on another day than donor 3. The compound concentrations were as follows:
The FACS analysis was used to identify whether the test compounds could induce activation of B cells, and two different subsets of dendritic cells, namely the myeloid CD11c+/CD123− DCs and the plasmacytoid CD11c−/CD123+ DCs. The following markers were studied to identify the activation status of the different subsets:
The FACS staining was performed according to the manufacturer's instructions. Lysis of red blood cells was performed before FACS staining in order to minimize auto-florescence. To include as many B cells and DCs in the study as possible the FACS analyses were performed on 500,000 cells in total for each staining. A P1 gate was set only to include relevant cells on FSC vs. SSC (see FIGS. 12-15). The results of the individual analysis were present as Mean Fluorescence Intensity
The analysis of myeloid DCs was based on HLA-DR+/CD11c+/CD123−cells, thus all analyzed cells was included in the HLA-DR+ (P3) gate and CD11c+/CD123− (Q4) gate (see gates in FIGS. 13-15).

PBMCs = experiment: IL-6 and TNF-alpha secretion in PBMCs (ELISA), Model 2; type: cell-based, human; conditions: three donors
[11] = Serum exposure after intravesical chronic treatment in mouse
Description: Serum samples were taken at time points: day 0, 2 hours, day 1, 24 hours, and day 6, 2 hours.
Samples were evaporated and re-suspended in 70 microliters of acetonitrile/methanol 1:1.

[12] = system: AY-27 rat bladder cancer cell-line
HLA-DR+/CD20+ B cells = experiment: FACS analysis of B cell activation in whole blood; type: cell-based, human; conditions: 24 hours; 2 and 10 uM; three donors
[13] = system: 73 primary molecular targets (human recombinant receptor types and subtypes or membrane fraction from rodent tissue homogenates); experiment: Radioligand binding assay among 73 primary molecular targets; conditions: SC12 at 30 microM
human PBMCs = experiment: IL-6 secretion in human PBMCs, two batches of Compound A and SC12; type: cell-based; conditions: PBMCs; 10-1-0,1-0.01 micromolar
[14] = system: Cutaneous Squamous Cell Carcinoma (SCC) cell lines SCL-I, SCL-II, SCC-12, SCC-13; experiment: Proapoptotic and cytotoxic effects on cutaneous SCC cell lines (real-time cell analysis, microscopy); type: cell-based, human; conditions: cutaneous SCC cell lines
Description: SCC cells are grown under standard conditions (10% FBS).
Time and dose dependency of effects on total cell numbers have been investigated by real-time cell analysis, which is based on continuous monitoring of electric conductance in microtiter wells (E-plates, Roche), which corresponds to the cell numbers. […] For these assays 4 cell lines should be used to obtain a representative overview on the effects on SCC cells.

[15] = whole blood, 6 hours incubation
[16] = whole blood, 24 hours incubation
[17] = batch CH730/16/8G, solid, external T and light, t = 2 days
[18] = batch CH730/16/8G, solid, external T and light, t = 6 days
[19] = batch CH730/16/8G, solution in CHCl3, RT and light, t = 0
[20] = batch CH730/16/8G, solution in CHCl3, RT and light, t = 1 day
[21] = batch CH730/16/8G, solution in CHCl3, RT and light, t = 5 days
[22] = batch CH730/16/8G, solution in CHCl3, RT and light, t = 7 days
[23] = batch CH730/16/8G, solution in CHCl3, RT and light, t = 11 days
[24] = batch CH730/16/8G, solution in CHCl3, T about 30° C. without light, t = 1 day
[25] = batch CH730/16/8G, solution in CHCl3, external T and light, t = 1 day

SMILES: CCCCCCCC/C=C\CCCCCCCC(=O)OCC(COP(=O)(O)OCCNC(=O)c1ccc(Cn2c(=O)[nH]c3c(N)nc(OCCOC)nc32)cc1)OC(=O)CCCCCCC/C=C\CCCCCCCC (stereo not shown) [Compound A, 2-(4-((6-amino-2-(2-methoxyethoxy)-8-oxo-7H-purin-9(8H)-yl)methyl)benzamido)ethyl 2,3-bis(oleoyloxy)propyl phosphate]
stability classification [1]: unstable | stability classification [2]: unstable | stability (in words) ([3]; at room temperature and/or in the presence of light): not a stable compound | HPLC purity ([3]; Test date: Jun. 10, 2009): Purity: 57.5% | HPLC purity ([3]; Test date: Jun. 11, 2009): Purity: 81.4% | HPLC purity ([3]; Test date: May 20, 2009): Purity: 89.6% | HPLC purity ([3]; tested Jun. 10, 2009, Retest date: Jun. 16, 2009): Purity: 44.8% | HPLC purity ([3]; tested Jun. 11, 2009, Retest date: Jun. 18, 2009): Purity: 71.5% | HPLC purity ([3]; tested May 20, 2009, Retest date: Jun. 12, 2009): Purity: 67.2% | HPLC purity ([3]; tested May 20, 2009, Retest date: Jun. 17, 2009): Purity: 58.9% | range of IL-6 secretion (human whole blood; whole blood, three donors): 4000 to 8000 pg/mL | ranges of IFN-alpha secreted (human whole blood; whole blood, three donors): 1000 to 2000 pg/mL | IL-12p40 levels (human whole blood; [15]): 8.000 to 12.000 pg/mL | IL-12p40 levels (human whole blood; [16]): 20.000 to 25.000 pg/mL | stability classification [4]: unstable | degradation (in words) ([5]; T>25° C. and in the presence of light): rapid degradation | HPLC % at RRT = 1 (main peak) [5, 17]: 37.6% | HPLC % of impurity at RRT = 1.06 [5, 17]: 9.2% | HPLC % of impurity at RRT = 1.11 [5, 17]: 27.9% | HPLC % of impurity at RRT = 1.26 [5, 17]: 14.8% | HPLC % at RRT = 1 (main peak) [5, 18]: 35.4% | HPLC % of impurity at RRT = 1.06 [5, 18]: 17.8% | HPLC % of impurity at RRT = 1.14 [5, 18]: 7.2% | HPLC % of impurity at RRT = 1.17 [5, 18]: 12.6% | HPLC % of impurity at RRT = 1.28 [5, 18]: 5.5% | HPLC % at RRT = 1 (main peak) [5, 19]: 81.4% | HPLC % of impurity at RRT = 1.11 [5, 19]: 8.6% | HPLC % of impurity at RRT = 1.23 [5, 19]: 4.2% | HPLC % at RRT = 1 (main peak) [5, 20]: 80.9% | HPLC % of impurity at RRT = 1.11 [5, 20]: 8.7% | HPLC % of impurity at RRT = 1.24 [5, 20]: 4.4% | HPLC % at RRT = 1 (main peak) [5, 21]: 79.3% | HPLC % of impurity at RRT = 1.10 [5, 21]: 9.9% | HPLC % of impurity at RRT = 1.24 [5, 21]: 4.2% | HPLC % at RRT = 1 (main peak) [5, 22]: 80.5% | HPLC % of impurity at RRT = 1.11 [5, 22]: 8.7% | HPLC % of impurity at RRT = 1.27 [5, 22]: 3.9% | HPLC % at RRT = 1 (main peak) [5, 23]: 82.0% | HPLC % of impurity at RRT = 1.16 [5, 23]: 6.9% | HPLC % of impurity at RRT = 1.29 [5, 23]: 3.7% | HPLC % at RRT = 1 (main peak) [5, 24]: 80.7% | HPLC % of impurity at RRT = 1.11 [5, 24]: 8.6% | HPLC % of impurity at RRT = 1.27 [5, 24]: 3.8% | HPLC % at RRT = 1 (main peak) [5, 25]: 80.3% | HPLC % of impurity at RRT = 1.11 [5, 25]: 8.0% | HPLC % of impurity at RRT = 1.27 [5, 25]: 3.2% | local side effects [6]: No local side effects | stability classification [7]: unstable

solubility in common solvents [8]: not soluble
SMILES: COCCOc1nc(N)c2[nH]c(=O)n(Cc3ccc(C(=O)O)cc3)c2n1 [Acid 7, 4-((6-amino-2-(2-methoxyethoxy)-8-oxo-7H-purin-9(8H)-yl)methyl)benzoic acid]

SMILES: CCOCc1nc2c(N)nc3ccccc3c2n1CC(C)(C)O [Resiquimod]
IFN-alpha secreted [9]: < 200 pg/mL

SMILES: CC(C)Cn1cnc2c(N)nc3ccccc3c21 [Imiquimod, reference compound]
CD80 expression in mDCs (MFI, in words) [10]: weak expression of CD80 in donor 1 and 2 | induction of IL-6 and TNF-alpha secretion (in words) (PBMCs): weak ability to induce the cytokines | Imiquimod levels in serum, Mean ± S.D. ([11]; intravesical 0.1%, Day 1, 24 hours, LLOQ 2.5 ng/ml): <LLOQ | accumulation in serum (in words) ([11]; intravesical chronic treatment, 6 days): no accumulation | induction of DC secreted cytokines (in words) (human whole blood; supernatant from whole blood cell assays): weak inducer | IL-6 secretion (in words) (human whole blood; whole blood, 6 h incubation): low and insignificant amounts of IL-6 | IFN-alpha secretion (in words) (human whole blood; [15]): did not induce IFN-alpha secretion | IL-10 production (in words) (human whole blood; [15]): no IL-10 production was seen | IL-12p40 secretion (in words) (human whole blood; [15]): did not induce IL-12p40 secretion | IL-12p40 secretion (in words) (human whole blood; [16]): did not induce IL-12p40 | Range of weight of the rat bladders ([12]; 0.5 ml intravesical instillation (Imiquimod 0.1%, SC12 0.38%) on day 2 and 5, day 12): 0.0814-0.1891 grams | signs of toxicity (in words) ([12]; intravesical instillation on day 2 and 5): No signs of toxicity | Tumor free (% of rats) ([12]; of 14 rats per group, day 12): 35.7% | Tumor free (number of rats) ([12]; of 14 rats per group, day 12): 5 | pT2 Tumor (% of rats) ([12]; of 14 rats per group, day 12): 64.3% | pT2 Tumor (number of rats) ([12]; of 14 rats per group, day 12): 9 | CD40 expression (MFI, in words) (HLA-DR+/CD20+ B cells): increased expression in all three donors | binding to receptors associated with pain-related syndromes (e.g. adenosine and sodium channel) [13]: shown to bind | IL-6 induction (in words) (human PBMCs): only active in inducing IL-6 at the highest concentration | cell numbers (real-time cell analysis, electric conductance) [14]: reduced cell numbers

Source: patent US9180183B2, “Phospholipid drug analogs” (Telormedix SA, priority 2010, dated 2015)
